Values of other authors as cited in patent US20050244821A1, “Method of identification and quantification of biological molecules and apparatus therefore” (priority 2000, published 2005).
pKd: −log10 of the molar value.

Molecular target: D2.3 antibody
Details: hapten and antibody free in solution; competitive ELISA, further by a fluorescence assay; read-out: affinity constant

pKd: 8.40
Substance: p-nitrobenzyl phosphonate N-glycylglutatarate [hapten 23.7]
